Source: ChEMBL document CHEMBL1152383, “Design and synthesis of indole, 2,3-dihydro-indole, and 3,4-dihydro-2H-quinoline-1-carbothioic acid amide derivatives as novel HCV inhibitors” (Bioorg Med Chem Lett, 2009)

Legend:
Hepatitis C virus = assay: Antiviral activity against HCV 1b infected in human HuH7 cells assessed as inhibition of viral sub-genomic replication by EG(delta-4AB)SEAP reporter protein assay; format: functional, organism-based, Hepacivirus hominis; settings: genotype 1b, Huh-7
[1] = Cytotoxicity against human HuH7 cells; format: cell-based, Huh-7
[2] = Selectivity index, ratio of CC50 for human HuH7 cells to EC50 for HCV 1b; set-up: species or system Huh-7

Structure (SMILES) | EC50 (Hepatitis C virus) | CC50 [1] | Ratio CC50/EC50 [2]
NC(=S)Nc1cccc(Oc2ccccc2)c1 | 0.49 µM |  | 
N#Cc1cccc(C(=O)NC(=S)N2CCc3c(OCCCCCOc4ccc(Cl)cc4)cccc32)c1 | 0.57 µM | 9.75 µM | 17
N#Cc1ccc(C(=O)NC(=S)N2CCc3c(OCCCCCOc4ccc(Cl)cc4)cccc32)cc1 | 0.51 µM | > 50 µM | >98
Cc1ccc(C(=O)NC(=S)N2CCc3c(OCCCCCOc4ccc(Cl)cc4)cccc32)cc1 | 1.94 µM | > 50 µM | >26
S=C(NC(=S)N1CCc2c(OCCCCCOc3ccc(Cl)cc3)cccc21)Oc1ccccc1 | > 50 µM | > 50 µM | >1
CN(C)c1ccc(C(=O)NC(=S)N2CCc3c(OCCCCCOc4ccc(Cl)cc4)cccc32)cc1 | 42.4 µM | > 50 µM | >1
O=C(NC(=S)N1CCc2cc(OCc3ccccc3)ccc21)c1ccccc1 | 4.81 µM | 45.2 µM | 9
O=C(NC(=S)N1CCc2c(OCCCCCOc3ccc(Cl)cc3)cccc21)c1cccnc1 | 2.37 µM | 11.1 µM | 5
O=C(NC(=S)N1CCc2c(OCCCCCOc3ccc(Cl)cc3)cccc21)c1ccoc1 | 1.72 µM | 20.1 µM | 12
O=C(NC(=S)N1CCc2c(OCCCCCOc3ccc(Cl)cc3)cccc21)c1cc2ccccc2s1 | 1.1 µM | > 50 µM | >45
NC(=S)N1CCCc2c(OCCCCCOc3cccc4ccccc34)cccc21 | > 50 µM | > 50 µM | >1
COc1ccc(C(=O)NC(=S)N2CCc3c(OCCCCCOc4ccc(Cl)cc4)cccc32)cc1 | 2.02 µM | 34.4 µM | 17
O=C(NC(=S)N1CCc2c(OCCCCCOc3ccc(Cl)cc3)cccc21)c1ccc(Cl)cc1 | 0.69 µM | 21.7 µM | 31
O=C(NC(=S)N1CCc2c(OCCCCCOc3ccc(Cl)cc3)cccc21)Oc1ccccc1 | > 50 µM | > 50 µM | >1
O=C(NC(=S)N1CCc2ccc(OCc3ccccc3)cc21)c1ccccc1 | 5.05 µM | 43.8 µM | 9
O=C(NC(=S)N1CCc2c(OCCCCCOc3ccc(Cl)cc3)cccc21)c1ccccc1[N+](=O)[O-] | 1.65 µM | > 50 µM | >30
O=C(NC(=S)N1CCc2c(OCCCCCOc3ccc(Cl)cc3)cccc21)c1ccno1 | 2.06 µM | 37.1 µM | 18
O=C(NC(=S)N1CCc2c(OCCCCCOc3ccc(Cl)cc3)cccc21)c1cccs1 | 0.66 µM | 10.7 µM | 16
O=C(NC(=S)N1CCc2c(OCCCCCOc3ccc(Cl)cc3)cccc21)C1CCCCC1 | 42.5 µM | > 50 µM | >1

Structure (SMILES) | EC50 (Hepatitis C virus) | CC50 [1] | Ratio CC50/EC50 [2]
O=C(NC(=S)N1CCc2c(OCc3ccccc3)cccc21)c1ccccc1 | 3.18 µM | > 50 µM | >16
CC(C)(C)c1ccc(C(=O)NC(=S)N2CCc3c(OCCCCCOc4ccc(Cl)cc4)cccc32)cc1 | 1.95 µM | > 50 µM | >26
O=C(NC(=S)N1CCc2c(OCCCCCOc3ccc(Cl)cc3)cccc21)c1ccc(Br)cc1 | 0.88 µM | 29.1 µM | 33
O=C(NC(=S)N1CCc2c(OCCCCCOc3ccc(Cl)cc3)cccc21)c1cccc([N+](=O)[O-])c1 | 0.58 µM | 12.1 µM | 21
O=C(NC(=S)N1CCc2c(OCCCCCOc3ccc(Cl)cc3)cccc21)c1ccsc1 | 1.02 µM | > 50 µM | >49
NC(=S)N1CCc2c(OCCCCCOc3ccc(Cl)cc3)cccc21 | 4.71 µM | > 50 µM | >11
O=C(NC(=S)N1CCc2c(OCCCCCOc3ccc(Cl)cc3)cccc21)c1ccc([N+](=O)[O-])cc1 | 0.72 µM | 13.6 µM | 19
NC(=S)n1ccc2c(OCCCCCOc3ccc(Cl)cc3)cccc21 | 24.5 µM | 24.7 µM | 1
O=S(=O)(NC(=S)N1CCc2c(OCCCCCOc3ccc(Cl)cc3)cccc21)c1ccccc1 | > 50 µM | > 50 µM | >1
O=C(CCc1ccccc1)NC(=S)N1CCc2c(OCCCCCOc3ccc(Cl)cc3)cccc21 | 13.4 µM | > 50 µM | >4
O=C(NC(=S)N1CCc2c(OCCCCCOc3ccc(Cl)cc3)cccc21)c1ccc2ccccc2c1 | 2.16 µM | > 50 µM | >23
O=C(NC(=S)N1CCc2c(OCCCCCOc3ccc(Cl)cc3)cccc21)c1ccc(C(F)(F)F)cc1 | 1.23 µM | 32.7 µM | 27
O=C(NC(=S)N1CCc2c(OCCCCCOc3ccc(Cl)cc3)cccc21)c1ccccc1 | 0.79 µM | > 50 µM | > 63
O=C(NC(=S)N1CCc2cccc(OCc3ccccc3)c21)c1ccccc1 | > 50 µM | > 50 µM | >1
O=C(NC(=S)N1CCc2c(OCCCCCOc3ccc(Cl)cc3)cccc21)c1ccco1 | 0.58 µM | 4.62 µM | 8
CCCC(=O)NC(=S)N1CCc2c(OCCCCCOc3ccc(Cl)cc3)cccc21 | 31.6 µM | > 50 µM | 2
O=C(NC(=S)N1CCc2c(OCCCCCOc3ccc(Cl)cc3)cccc21)c1ccc(F)cc1 | 0.95 µM | 31.1 µM | 33
O=C(NC(=S)N1CCc2c(OCCCCCOc3ccc(Cl)cc3)cccc21)C1CCCC1 | 25.4 µM | > 50 µM | >2
O=C(NC(=S)n1ccc2c(OCCCCCOc3ccc(Cl)cc3)cccc21)c1ccccc1 | 4.06 µM | 29.5 µM | 7
